Where two headings read alike, the source gives them in different places.

Assay [1] deals with synthesis of LTB4 in human whole blood. Put plainly: human whole blood LTB4 production inhibition assay. The class given is cell-based. The conditions noted are these: heparinized human whole blood, calcimycin 20 μM, read-out: hWB LTB4 IC50. Summed up:
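Heparinized human whole blood was preincubated with compound for 15 min at 37° C, then stimulated with calcimycin (20 μM final, in PBS pH 7.4) for a further 30 min at 37° C. Plasma LTB4 was quantified by antibody-based homogeneous time-resolved fluorescence.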

Assay [2] addresses T1, recombinant human FLAP protein (Homo sapiens, UniProt P20292).
T1 construct: made in house; host or cells: Sf9 insect cells (100,000 x g membrane fraction)
T1 sequence (P20292 1-161): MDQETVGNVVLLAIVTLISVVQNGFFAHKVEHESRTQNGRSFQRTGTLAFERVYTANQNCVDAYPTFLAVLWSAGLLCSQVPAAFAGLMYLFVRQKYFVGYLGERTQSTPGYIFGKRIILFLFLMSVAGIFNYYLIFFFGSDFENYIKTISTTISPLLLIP
Put plainly: FLAP binding assay (Scintillation Proximity Assay, displacement of [125I]L-691,831). To be noted: recombinant human FLAP membranes, [125I]L-691,831 probe; read-out: FLAP SPA IC50. Summed up:
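WGA scintillation proximity beads were stirred 1 h with 5 μg of FLAP-containing membrane protein. The membranes came from baculovirus Sf9 cells, Dounce-lysed and spun to a 100,000×g pellet in buffer at pH 7.5.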

Usually IC50 stands for the concentration that inhibits the measured activity by half. As for `Nc1ncc(-c2ccc(C3(c4noc(-c5ccc(Cl)c(Cl)c5)n4)CCC3)cc2)cn1` [Example 55, 5-(4-{1-[5-(3,4-Dichloro-phenyl)-1,2,4-oxadiazol-3-yl]-cyclobutyl}-phenyl)-pyrimidin-2-ylamine], the IC50 was 1100 nM in assay [1] (Homo sapiens) and 13 nM in assay [2].
Turning to `CN(C)C(=O)Cn1cccc(-c2nc(C3(c4ccc(-c5cnc(N)nc5)cc4)CCC3)no2)c1=O` [Example 119, 2-[3-(3-{1-[4-(2-Amino-pyrimidin-5-yl)-phenyl]-cyclobutyl}-1,2,4-oxadiazol-5-yl)-2-oxo-2H-pyridin-1-yl]-N,N-dimethyl-acetamide], the values for the concentration for half-maximal inhibition (IC50) in assay [1] (Homo sapiens) and in assay [2] were 790 nM and 40 nM, respectively.
For the molecule `Nc1ncc(-c2ccc(C3(c4noc(-c5cnn(CC(=O)NCC6CCCO6)c5)n4)CCC3)cc2)cn1` (stereo not drawn) [Example 224, 2-[4-(3-{1-[4-(2-Amino-pyrimidin-5-yl)-phenyl]-cyclobutyl}-[1,2,4]oxadiazol-5-yl)-pyrazol-1-yl]-N-(tetrahydro-furan-2-ylmethyl)-acetamide], the IC50 in assay [1] (Homo sapiens) worked out at 64 nM; in assay [2] it was 2.8 nM.
The matching figures for `Nc1ncc(-c2ccc(C3(c4noc(-c5cnc(NCCO)cn5)n4)CCC3)cc2)cn1` [Example 68, 2-[5-(3-{1-[4-(2-Amino-pyrimidin-5-yl)-phenyl]-cyclobutyl}-1,2,4-oxadiazol-5-yl)-pyrazin-2-ylamino]-ethanol]: 130 nM and 1.1 nM.
As for `COC1CCN(C(=O)Cn2cc(-c3nc(C4(c5ccc(-c6cnc(N)nc6)cc5)CCC4)no3)cn2)C1` (stereo not drawn) [Example 210, 2-[4-(3-{1-[4-(2-Amino-pyrimidin-5-yl)-phenyl]-cyclobutyl}-[1,2,4]oxadiazol-5-yl)-pyrazol-1-yl]-1-(3-methoxy-pyrrolidin-1-yl)-ethanone], the IC50 in assay [1] (Homo sapiens) was 110 nM; in assay [2], 4.6 nM.
Taken in the same sequence, the figures for `Nc1cnc(-c2ccc(C3(c4noc(-c5cnn(C6COC6)c5)n4)CCC3)cc2)cn1` [Example 299, 5-(4-{1-[5-(1-Oxetan-3-yl-1H-pyrazol-4-yl)-[1,2,4]oxadiazol-3-yl]-cyclobutyl}-phenyl)-pyrazin-2-ylamine; compound with trifluoro-acetic acid] were 24 nM and 2.9 nM.
Taken in the same sequence, the figures for `Nc1ncc(-c2ccc(C3(c4noc(-c5csc(N6CCNCC6)n5)n4)CCC3)cc2)cn1` [Example 266, 5-(4-{1-[5-(2-Piperazin-1-yl-thiazol-4-yl)-[1,2,4]oxadiazol-3-yl]-cyclobutyl}-phenyl)-pyrimidin-2-ylamine] were 160 nM and 6.5 nM.
Take `CSCCn1cc(-c2nc(C3(c4ccc(-c5cnc(N)nc5)cc4)CCC3)no2)cn1` [Example 230, 5-[4-(1-{5-[1-(2-Methylsulfanyl-ethyl)-1H-pyrazol-4-yl]-[1,2,4]oxadiazol-3-yl}-cyclobutyl)-phenyl]-pyrimidin-2-ylamine]: the IC50 came out at 64 nM in assay [1] (Homo sapiens) and 1.3 nM in assay [2].
With `Cc1cccc(-c2nc(C3(c4ccc(-c5cnc(N)nc5)cc4)CCC3)no2)c1` [Example 34, 5-{4-[1-(5-m-tolyl-1,2,4-oxadiazol-3-yl)-cyclobutyl]-phenyl}-pyrimidin-2-ylamine], the figures for the concentration for half-maximal inhibition (IC50) in assay [1] (Homo sapiens) and in assay [2] were 780 nM and 7.7 nM, respectively.
For `Cc1nocc1-c1nc(C2(c3ccc(-c4cnc(N)nc4)cc3)CCC2)no1` [Example 163, 5-(4-{1-[5-(3-Methyl-isoxazol-4-yl)-1,2,4-oxadiazol-3-yl]-cyclobutyl}-phenyl)-pyrimidin-2-ylamine], the IC50 in assay [1] (Homo sapiens) came to 450 nM; in assay [2], 4 nM.
Consider `Nc1ncc(-c2ccc(C3(c4noc(-c5cnn(CCN6CCCC6=O)c5)n4)CCC3)cc2)cn1` [Example 216, 1-{2-[4-(3-{1-[4-(2-Amino-pyrimidin-5-yl)-phenyl]-cyclobutyl}-[1,2,4]oxadiazol-5-yl)-pyrazol-1-yl]-ethyl}-pyrrolidin-2-one], for which the figures for the 50% inhibitory concentration (IC50) in assay [1] (Homo sapiens) and in assay [2] were 59 nM and 1.3 nM, respectively.
For the molecule `CCn1ncc(-c2nc(C3(c4ccc(-c5cnc(N)nc5)cc4)CCC3)no2)c1C` [Example 2, 5-(4-{1-[5-(1-ethyl-5-methyl-1H-pyrazol-4-yl)-1,2,4-oxadiazol-3-yl]-cyclobutyl}-phenyl)-pyrimidin-2-ylamine], the 50% inhibitory concentration (IC50) in assay [1] (Homo sapiens) was determined as 100 nM; in assay [2], 2.2 nM.
For the molecule `CC(C)(O)Cn1cncc1-c1nc(C2(c3ccc(-c4cnc(N)nc4)cc3)CCC2)no1` [Example 298, 1-[5-(3-{1-[4-(2-Amino-pyrimidin-5-yl)-phenyl]-cyclobutyl}-[1,2,4]oxadiazol-5-yl)-imidazol-1-yl]-2-methyl-propan-2-ol], the IC50 in assay [1] (Homo sapiens) is 510 nM; in assay [2] it was 16 nM.
As to `COC(=O)[C@H]1CN(c2cnc(-c3nc(C4(c5ccc(-c6cnc(N)nc6)cc5)CCC4)no3)cn2)CCN1` [Example 125, (R)-5′-(3-{1-[4-(2-Amino-pyrimidin-5-yl)-phenyl]-cyclobutyl}-1,2,4-oxadiazol-5-yl)-3,4,5,6-tetrahydro-2H-1,2′-bipyrazinyl-3-carboxylic acid methyl ester], the IC50 is > 5000 nM in assay [1] and 5 nM in assay [2].
Turning to `Nc1ncc(-c2ccc(C3(c4noc(N5CCCCC5)n4)CCC3)cc2)cn1` [Example 80, 5-{4-[1-(5-Piperidin-1-yl-1,2,4-oxadiazol-3-yl)-cyclobutyl]-phenyl}-pyrimidin-2-ylamine], the 50% inhibitory concentration (IC50) in assay [1] (Homo sapiens) is 390 nM; in assay [2], 6.5 nM.
With `Nc1ncc(-c2ccc(C3(c4noc(-c5ccncn5)n4)CCC3)cc2)cn1` [Example 171, 5-{4-[1-(5-Pyrimidin-4-yl-1,2,4-oxadiazol-3-yl)-cyclobutyl]-phenyl}-pyrimidin-2-ylamine], the concentration for half-maximal inhibition (IC50) worked out at 820 nM in assay [1] (Homo sapiens) and 14 nM in assay [2].
As to `CNC(=O)n1cc(-c2nc(C3(c4ccc(-c5cnc(N)nc5)cc4)CCC3)no2)cn1` [Example 213, 4-(3-{1-[4-(2-Amino-pyrimidin-5-yl)-phenyl]-cyclobutyl}-[1,2,4]oxadiazol-5-yl)-pyrazole-1-carboxylic acid methylamide], the IC50 in assay [1] (Homo sapiens) worked out at 110 nM; in assay [2], 0.85 nM.
The matching figures for `Cn1cc(-c2nc(C3(c4ccc(-c5ccc(N)c(C#N)c5)cc4)CCC3)no2)cn1` [Example 260]: 2000 nM and 76 nM.
As to `Nc1ncc(-c2ccc(C3(c4noc(-c5cn(C(c6ccccc6)(c6ccccc6)c6ccccc6)cn5)n4)CCC3)cc2)cn1` [Example 244, 5-(4-{1-[5-(1-Trityl-1H-imidazol-4-yl)-[1,2,4]oxadiazol-3-yl]-cyclobutyl}-phenyl)-pyrimidin-2-ylamine], the values for the concentration for half-maximal inhibition (IC50) in assay [1] (Homo sapiens) and in assay [2] were > 5000 nM and 250 nM, respectively.
Taken in the same sequence, the figures for `CCNC(=O)Cn1cc(-c2nc(C3(c4ccc(-c5cnc(N)nc5)cc4)CCC3)no2)cn1` [Example 130, 2-[4-(3-{1-[4-(2-Amino-pyrimidin-5-yl)-phenyl]-cyclobutyl}-1,2,4-oxadiazol-5-yl)-pyrazol-1-yl]-N-ethyl-acetamide] were 75 nM and 1.5 nM.
In the case of `Nc1ncc(-c2ccc(C3(c4noc(-c5cnn(C6COC6)c5)n4)CC3)cc2)cn1` [Example 255, 5-(4-{1-[5-(1-Oxetan-3-yl-1H-pyrazol-4-yl)-[1,2,4]oxadiazol-3-yl]-cyclopropyl}-phenyl)-pyrimidin-2-ylamine], the half-inhibitory concentration (IC50) stood at 1900 nM in assay [1] (Homo sapiens) and 150 nM in assay [2].
Consider `Cn1cc(-c2nc(C3(c4ccc(-c5cnc(N)nc5)cc4)CCC3)no2)ccc1=O` [Example 3, 5-(3-{1-[4-(2-Amino-pyrimidin-5-yl)-phenyl]-cyclobutyl}-1,2,4-oxadiazol-5-yl)-1-methyl-1H-pyridin-2-one], for which the IC50 was determined as 350 nM in assay [1] (Homo sapiens) and 5.6 nM in assay [2].
As to `Cn1ccnc1-c1nc(C2(c3ccc(-c4cnc(N)nc4)cc3)CCC2)no1` [Example 245, 5-(4-{1-[5-(1-Methyl-1H-imidazol-2-yl)-[1,2,4]oxadiazol-3-yl]-cyclobutyl}-phenyl)-pyrimidin-2-ylamine], the IC50 in assay [1] (Homo sapiens) was 1700 nM; in assay [2], 38 nM.
Regarding `NC(=O)c1nc(C2(c3ccc(-c4cnc(N)nc4)cc3)CCC2)no1` [Example 177, 3-{1-[4-(2-Amino-pyrimidin-5-yl)-phenyl]-cyclobutyl}-1,2,4-oxadiazole-5-carboxylic acid amide], the concentration for half-maximal inhibition (IC50) in assay [1] (Homo sapiens) stood at 1300 nM; in assay [2], 98 nM.
Turning to `N#Cc1ccc(-c2nc(C3(c4ccc(-c5cnc(N)nc5)cc4)CCC3)no2)cc1` [Example 42, 4-(3-{1-[4-(2-Amino-pyrimidin-5-yl)-phenyl]-cyclobutyl}-1,2,4-oxadiazol-5-yl)-benzonitrile], the IC50 turned out to be 690 nM in assay [1] (Homo sapiens) and 8.4 nM in assay [2].
With `Nc1ncc(-c2ccc(C3(c4noc(-c5cnn(CC(=O)N6CCCC6)c5)n4)CCC3)cc2)cn1` [Example 137, 2-[4-(3-{1-[4-(2-Amino-pyrimidin-5-yl)-phenyl]-cyclobutyl}-1,2,4-oxadiazol-5-yl)-pyrazol-1-yl]-1-pyrrolidin-1-yl-ethanone], the IC50 amounted to 170 nM in assay [1] (Homo sapiens) and 7.7 nM in assay [2].
Take `COC(=O)c1cnc(-c2nc(C3(c4ccc(-c5cnc(N)nc5)cc4)CCC3)no2)cn1` [Example 1, 5-(3-{1-[4-(2-amino-pyrimidin-5-yl)-phenyl]-cyclobutyl}-1,2,4-oxadiazol-5-yl)-pyrazine-2-carboxylic acid methyl ester]: the IC50 came out at 330 nM in assay [1] (Homo sapiens) and 8.4 nM in assay [2].

These data come from patent publication US8580829B2 (Boehringer Ingelheim International GmbH, priority 2010, dated 2013).
